Results taken from patent US20220331274A1, “METHODS OF TREATING CANCER” (Inspirna, Inc., priority 2019, published 2022).

Tests used:
[1] = target: CYP3A4 (Homo sapiens, UniProt P08684); assay: in vitro CYP metabolism; format: in vitro ADME
[2] = target: CYP2C9 (Homo sapiens, UniProt P11712); assay: in vitro CYP metabolism; format: in vitro ADME
[3] = single agent therapy in subjects, toxicities; format: in vivo
[4] = test system: MDSCs; assay: reduction of MDSCs in circulation and in tumors; format: in vivo
[5] = target: organic anion transporting polypeptide (OATP) 1B1 (Homo sapiens, UniProt Q9Y6L6); assay: uptake transporter inhibition in vitro; format: in vitro ADME; conditions: read-out: IC50 OATP1B1
Sequence of organic anion transporting polypeptide (OATP) 1B1 (Q9Y6L6 whole entry): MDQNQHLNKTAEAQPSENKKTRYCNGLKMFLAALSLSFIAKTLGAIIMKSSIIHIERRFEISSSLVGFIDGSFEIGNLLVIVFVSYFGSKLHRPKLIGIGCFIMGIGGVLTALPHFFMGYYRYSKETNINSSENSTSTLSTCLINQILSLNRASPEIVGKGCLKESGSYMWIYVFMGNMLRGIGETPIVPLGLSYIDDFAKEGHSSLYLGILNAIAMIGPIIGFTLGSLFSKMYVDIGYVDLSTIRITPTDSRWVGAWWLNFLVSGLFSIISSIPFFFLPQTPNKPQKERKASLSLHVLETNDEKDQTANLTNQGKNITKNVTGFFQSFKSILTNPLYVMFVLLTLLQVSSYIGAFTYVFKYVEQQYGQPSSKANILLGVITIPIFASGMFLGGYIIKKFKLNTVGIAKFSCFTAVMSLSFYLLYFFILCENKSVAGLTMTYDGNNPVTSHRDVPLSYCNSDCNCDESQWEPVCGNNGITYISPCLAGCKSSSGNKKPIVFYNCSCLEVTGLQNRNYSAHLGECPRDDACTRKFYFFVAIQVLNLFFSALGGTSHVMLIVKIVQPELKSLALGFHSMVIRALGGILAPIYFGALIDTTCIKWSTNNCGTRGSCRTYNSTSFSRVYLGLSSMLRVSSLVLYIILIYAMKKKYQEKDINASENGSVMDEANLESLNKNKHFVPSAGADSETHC

[6] = target: CYP2C8 (Homo sapiens, UniProt P10632); assay: in vitro CYP450 inhibition; format: in vitro ADME; conditions: read-out: 50% inhibitory concentration [IC50] CYP2C8
Sequence of CYP2C8 (P10632 whole entry): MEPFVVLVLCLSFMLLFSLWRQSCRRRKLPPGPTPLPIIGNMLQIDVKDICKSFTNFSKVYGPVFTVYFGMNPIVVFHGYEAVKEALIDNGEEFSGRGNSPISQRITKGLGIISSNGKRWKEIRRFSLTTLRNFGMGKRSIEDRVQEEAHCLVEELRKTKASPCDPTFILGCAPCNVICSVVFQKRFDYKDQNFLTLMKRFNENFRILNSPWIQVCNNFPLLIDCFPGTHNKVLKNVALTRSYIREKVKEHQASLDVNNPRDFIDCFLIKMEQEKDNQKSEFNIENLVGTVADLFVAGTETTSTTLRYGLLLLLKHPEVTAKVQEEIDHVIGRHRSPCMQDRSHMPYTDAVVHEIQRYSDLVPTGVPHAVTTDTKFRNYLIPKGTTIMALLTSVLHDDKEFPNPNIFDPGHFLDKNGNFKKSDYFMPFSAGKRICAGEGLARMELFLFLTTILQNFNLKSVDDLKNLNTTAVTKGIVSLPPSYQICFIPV

[7] = safety pharmacology, ECG and heart rate in dogs; format: in vivo
[8] = target: OAT1 (Homo sapiens, UniProt Q4U2R8); assay: transporter inhibition in vitro; format: in vitro ADME
Sequence of OAT1 (Q4U2R8 whole entry): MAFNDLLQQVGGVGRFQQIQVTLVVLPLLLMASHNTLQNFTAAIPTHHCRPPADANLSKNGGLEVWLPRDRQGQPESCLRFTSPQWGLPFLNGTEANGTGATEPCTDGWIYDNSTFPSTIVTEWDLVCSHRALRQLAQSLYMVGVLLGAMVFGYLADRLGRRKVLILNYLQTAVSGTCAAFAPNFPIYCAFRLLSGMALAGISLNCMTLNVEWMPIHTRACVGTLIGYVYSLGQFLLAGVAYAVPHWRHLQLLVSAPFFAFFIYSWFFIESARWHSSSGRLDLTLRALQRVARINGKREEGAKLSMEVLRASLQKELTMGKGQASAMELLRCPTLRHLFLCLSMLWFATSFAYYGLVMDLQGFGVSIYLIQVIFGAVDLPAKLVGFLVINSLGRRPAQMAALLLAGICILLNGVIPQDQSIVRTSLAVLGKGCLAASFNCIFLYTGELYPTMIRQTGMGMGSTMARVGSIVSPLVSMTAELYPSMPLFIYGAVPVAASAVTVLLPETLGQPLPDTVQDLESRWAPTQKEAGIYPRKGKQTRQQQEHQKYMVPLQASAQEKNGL

[9] = target: BCRP (Homo sapiens, UniProt Q9UNQ0); assay: efflux transporter inhibition in vitro; format: in vitro ADME; conditions: read-out: inhibition of BCRP transport
Sequence of BCRP (Q9UNQ0 whole entry, species assumed): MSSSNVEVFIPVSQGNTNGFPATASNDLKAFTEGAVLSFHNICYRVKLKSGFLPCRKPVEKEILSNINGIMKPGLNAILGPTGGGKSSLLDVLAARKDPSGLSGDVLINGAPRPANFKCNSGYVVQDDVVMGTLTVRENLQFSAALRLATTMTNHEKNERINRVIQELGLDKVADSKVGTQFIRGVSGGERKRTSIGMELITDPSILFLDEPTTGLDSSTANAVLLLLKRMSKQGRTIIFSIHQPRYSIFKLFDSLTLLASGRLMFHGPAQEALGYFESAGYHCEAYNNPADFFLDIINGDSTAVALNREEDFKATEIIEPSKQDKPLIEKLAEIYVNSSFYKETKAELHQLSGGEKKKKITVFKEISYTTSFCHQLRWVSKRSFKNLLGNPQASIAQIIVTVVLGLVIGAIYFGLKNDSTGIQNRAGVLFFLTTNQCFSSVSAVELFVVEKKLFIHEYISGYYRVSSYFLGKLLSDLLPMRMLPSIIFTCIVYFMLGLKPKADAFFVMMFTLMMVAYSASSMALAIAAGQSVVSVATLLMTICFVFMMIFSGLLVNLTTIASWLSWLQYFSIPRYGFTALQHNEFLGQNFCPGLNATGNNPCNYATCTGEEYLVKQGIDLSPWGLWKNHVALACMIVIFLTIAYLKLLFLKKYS

[10] = target: 2D6 (Homo sapiens, UniProt P10635); assay: in vitro CYP450 inhibition; format: in vitro ADME
Sequence of 2D6 (P10635 whole entry): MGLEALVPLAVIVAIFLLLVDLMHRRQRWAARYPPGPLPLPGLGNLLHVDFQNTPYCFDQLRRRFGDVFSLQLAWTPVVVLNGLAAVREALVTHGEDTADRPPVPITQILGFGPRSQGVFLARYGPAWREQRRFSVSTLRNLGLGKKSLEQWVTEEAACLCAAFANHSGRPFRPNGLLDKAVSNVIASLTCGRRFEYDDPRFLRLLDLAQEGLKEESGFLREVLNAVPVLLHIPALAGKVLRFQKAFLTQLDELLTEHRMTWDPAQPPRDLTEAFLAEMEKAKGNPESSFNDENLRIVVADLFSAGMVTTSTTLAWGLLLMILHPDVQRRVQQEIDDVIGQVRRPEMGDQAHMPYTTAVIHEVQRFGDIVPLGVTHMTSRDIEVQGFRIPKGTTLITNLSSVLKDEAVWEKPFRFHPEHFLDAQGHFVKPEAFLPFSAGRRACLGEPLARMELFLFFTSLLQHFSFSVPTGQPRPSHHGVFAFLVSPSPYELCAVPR

[11] = target: CYP2E1 (Homo sapiens, UniProt P05181); assay: in vitro CYP metabolism; format: in vitro ADME
Sequence of CYP2E1 (P05181 whole entry): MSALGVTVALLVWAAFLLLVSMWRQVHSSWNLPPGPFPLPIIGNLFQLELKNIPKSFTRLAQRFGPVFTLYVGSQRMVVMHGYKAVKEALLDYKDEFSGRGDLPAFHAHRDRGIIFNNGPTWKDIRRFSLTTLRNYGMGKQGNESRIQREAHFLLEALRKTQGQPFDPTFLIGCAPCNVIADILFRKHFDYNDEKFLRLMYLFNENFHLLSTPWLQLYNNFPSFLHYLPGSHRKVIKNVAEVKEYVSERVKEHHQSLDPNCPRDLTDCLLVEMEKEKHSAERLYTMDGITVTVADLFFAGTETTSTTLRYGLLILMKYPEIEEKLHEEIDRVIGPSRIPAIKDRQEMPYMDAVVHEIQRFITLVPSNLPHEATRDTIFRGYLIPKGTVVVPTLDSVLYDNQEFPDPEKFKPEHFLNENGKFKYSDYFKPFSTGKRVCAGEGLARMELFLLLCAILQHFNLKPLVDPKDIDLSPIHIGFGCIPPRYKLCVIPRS

[12] = test system: endothelial cells; assay: endothelial recruitment in vitro; format: cell-based
[13] = test system: ApoE; assay: ApoE gene expression induction in hPBMCs; format: cell-based, human; conditions: compared to control cells
[14] = oral PK study in Sprague-Dawley rats; format: in vivo
[15] = test system: Xenograft A549; assay: Example 2: Xenograft A549 mice, tumor volume; format: in vivo
Procedure: Protocol: Five groups of Xenograft A549 mice were treated and tumor volume tracked for twenty-two days. Group 01 was administered 0.9% Saline, 0 mg/kg cisplatin, Corn Oil, and 0 mg/kg 2-[3-[(3R)-3-[[2-chloro-3-(trifluoromethyl)phenyl]methyl-(2,2-diphenylethyl)amino]butoxy]phenyl]acetic acid; Group 02 was administered 2 mg/kg Cisplatin, Corn Oil, and 0 mg/kg 2-[3-[(3R)-3-[[2-chloro-3-(trifluoromethyl)phenyl]methyl-(2,2-diphenylethyl)amino]butoxy]phenyl]acetic acid; Group 03 was administered 0.9% Saline, 0 mg/kg cisplatin, and 50 mg/kg 2-[3-[(3R)-3-[[2-chloro-3-(trifluoromethyl)phenyl]methyl-(2,2-diphenylethyl)amino]butoxy]phenyl]acetic acid; Group 04 was administered 2 mg/kg cisplatin and 50 mg/kg 2-[3-[(3R)-3-[[2-chloro-3-(trifluoromethyl)phenyl]methyl-(2,2-diphenylethyl)amino]butoxy]phenyl]acetic acid twice per day daily for the entire treatment period; and Group 05 was administered 2 mg/kg cisplatin and 50 mg/kg 2-[3-[(3R)-3-[[2-chloro-3-(trifluoromethyl)phenyl]methyl-(2,2-diphenylethyl)amino]butoxy]phenyl]acetic acid twice per day for five continuous days followed by two days without for the entire treatment period.

Sequence of CYP2C9 (P11712 whole entry): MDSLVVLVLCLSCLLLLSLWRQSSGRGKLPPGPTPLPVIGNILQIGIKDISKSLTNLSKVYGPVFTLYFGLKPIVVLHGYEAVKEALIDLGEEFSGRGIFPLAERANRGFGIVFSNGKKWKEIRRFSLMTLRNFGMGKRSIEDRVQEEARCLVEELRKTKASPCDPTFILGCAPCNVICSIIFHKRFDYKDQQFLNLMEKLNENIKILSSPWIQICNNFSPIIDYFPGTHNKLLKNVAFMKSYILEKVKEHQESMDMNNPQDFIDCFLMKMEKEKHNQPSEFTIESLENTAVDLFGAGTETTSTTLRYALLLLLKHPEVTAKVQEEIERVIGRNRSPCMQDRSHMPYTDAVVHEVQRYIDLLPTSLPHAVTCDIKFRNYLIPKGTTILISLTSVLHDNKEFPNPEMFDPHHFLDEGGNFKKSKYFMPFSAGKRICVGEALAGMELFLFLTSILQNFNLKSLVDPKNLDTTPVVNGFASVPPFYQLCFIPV
Sequence of CYP3A4 (P08684 whole entry): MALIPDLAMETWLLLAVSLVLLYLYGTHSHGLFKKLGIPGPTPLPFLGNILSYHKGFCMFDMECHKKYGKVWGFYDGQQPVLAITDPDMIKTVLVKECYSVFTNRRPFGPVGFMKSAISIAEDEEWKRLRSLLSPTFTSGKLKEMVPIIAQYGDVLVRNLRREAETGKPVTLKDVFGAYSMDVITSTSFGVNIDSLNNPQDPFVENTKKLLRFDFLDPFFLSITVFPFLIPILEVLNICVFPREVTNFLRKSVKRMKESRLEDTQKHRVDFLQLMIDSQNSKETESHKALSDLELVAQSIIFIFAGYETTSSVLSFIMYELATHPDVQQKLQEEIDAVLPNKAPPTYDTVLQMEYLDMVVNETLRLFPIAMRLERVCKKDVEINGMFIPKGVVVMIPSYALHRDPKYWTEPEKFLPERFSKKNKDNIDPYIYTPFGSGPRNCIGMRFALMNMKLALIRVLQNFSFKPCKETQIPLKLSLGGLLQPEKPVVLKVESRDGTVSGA

C[C@H](CCOc1cccc(CC(=O)O)c1)N(Cc1cccc(C(F)(F)F)c1Cl)CC(c1ccccc1)c1ccccc1 [2-[3-[(3R)-3-[[2-chloro-3-(trifluoromethyl)phenyl]methyl-(2,2-diphenylethyl)amino]butoxy]phenyl]acetic acid]
metabolism by CYP3A4 [1]: metabolized predominantly
substrate for CYP2C9 [2]: a substrate
dose-limiting toxicity (DLT) ([3]; single agent therapy): DLT of Grade 4 neutropenia
hyperlipidemia in treated subjects ([3]; subjects treated): hyperlipidemia has been observed
reduction of MDSCs in circulation ([4]; in circulation): ~40%
reduction of MDSCs in tumors ([4]; in tumors): > 60%
IC50 [5]: 0.099 µM
IC50 [6]: 7.5 µM
compound-related effects on qualitative ECG parameters (PR or QTc intervals or QRS duration) [7]: no
mean heart rate ([7]; Day 1 post-dose interval, significant in females at 150 (stepped down to 100) mg/kg/day, not considered adverse): dose related decrease in mean heart rate
inhibition at 50 µM [8]: < 50%
inhibition at 5 µM [9]: 55%
inhibition of 2D6 [10]: very weakly inhibited
substrate for CYP2E1 [11]: a substrate
inhibition of endothelial recruitment [12]: ~50%
ApoE gene expression induction [13]: up to 40 fold
half-life ([14]; Sprague-Dawley, rat, plasma, po, female rats, read-out: mean apparent oral t½ (converted)): 6.5 h
clearance, female versus male rats ([14]; all dose levels, higher systemic exposure in females): cleared at a lower rate in female rats compared to males
Tmax ([14]; both sexes, rat, plasma, po, Sprague-Dawley rats, males and females): 4 to 8 h
bioavailability ([14]; rat, plasma, Sprague-Dawley rats, 30 mg/kg oral dose, read-out: combined, mean % F): ~31%
mean tumor volume ([15]; Group 03: 50 mg/kg, 0.9% saline, 0 mg/kg cisplatin, day 0): 86.36
mean tumor volume ([15]; Group 03: 50 mg/kg, 0.9% saline, 0 mg/kg cisplatin, day 3): 98.82
mean tumor volume ([15]; Group 03: 50 mg/kg, 0.9% saline, 0 mg/kg cisplatin, day 6): 125.97
mean tumor volume ([15]; Group 03: 50 mg/kg, 0.9% saline, 0 mg/kg cisplatin, day 9): 232.26
mean tumor volume ([15]; Group 03: 50 mg/kg, 0.9% saline, 0 mg/kg cisplatin, day 12): 354.70
mean tumor volume ([15]; Group 03: 50 mg/kg, 0.9% saline, 0 mg/kg cisplatin, day 15): 507.62
mean tumor volume ([15]; Group 03: 50 mg/kg, 0.9% saline, 0 mg/kg cisplatin, day 19): 1053.57
mean tumor volume ([15]; Group 03: 50 mg/kg, 0.9% saline, 0 mg/kg cisplatin, day 22): 1151.02
mean tumor volume ([15]; Group 04: 50 mg/kg twice per day daily + 2 mg/kg cisplatin, day 0, in mm³ (unit assumed)): 86.71
mean tumor volume ([15]; Group 04: 50 mg/kg twice per day daily + 2 mg/kg cisplatin, day 3): 94.50
mean tumor volume ([15]; Group 04: 50 mg/kg twice per day daily + 2 mg/kg cisplatin, day 6): 111.80
mean tumor volume ([15]; Group 04: 50 mg/kg twice per day daily + 2 mg/kg cisplatin, day 9, in mm³ (unit assumed)): 214.76
mean tumor volume ([15]; Group 04: 50 mg/kg twice per day daily + 2 mg/kg cisplatin, day 12, in mm³ (unit assumed)): 315.64
mean tumor volume ([15]; Group 04: 50 mg/kg twice per day daily + 2 mg/kg cisplatin, day 15, in mm³ (unit assumed)): 315.55
mean tumor volume ([15]; Group 04: 50 mg/kg twice per day daily + 2 mg/kg cisplatin, day 19): 748.19
mean tumor volume ([15]; Group 04: 50 mg/kg twice per day daily + 2 mg/kg cisplatin, day 22): 875.67
mean tumor volume ([15]; Group 05: 50 mg/kg twice per day five days then two days without + 2 mg/kg cisplatin, day 0, in mm³ (unit assumed)): 86.32
mean tumor volume ([15]; Group 05: 50 mg/kg twice per day five days then two days without + 2 mg/kg cisplatin, day 3): 97.27
mean tumor volume ([15]; Group 05: 50 mg/kg twice per day five days then two days without + 2 mg/kg cisplatin, day 6): 129.15
mean tumor volume ([15]; Group 05: 50 mg/kg twice per day five days then two days without + 2 mg/kg cisplatin, day 9, in mm³ (unit assumed)): 212.99
mean tumor volume ([15]; Group 05: 50 mg/kg twice per day five days then two days without + 2 mg/kg cisplatin, day 12, in mm³ (unit assumed)): 334.58
mean tumor volume ([15]; Group 05: 50 mg/kg twice per day five days then two days without + 2 mg/kg cisplatin, day 15, in mm³ (unit assumed)): 345.20
mean tumor volume ([15]; Group 05: 50 mg/kg twice per day five days then two days without + 2 mg/kg cisplatin, day 19): 680.16
mean tumor volume ([15]; Group 05: 50 mg/kg twice per day five days then two days without + 2 mg/kg cisplatin, day 22): 830.27
